Results published in US11339144B2 (Navitor Pharmaceuticals, Inc., priority 2017, dated 2022).

How the values were obtained:
[1] = biological target: HA-GST-Rheb (GTP-γ-S loaded) activating mTORC1 (Homo sapiens (Human), UniProt Q15382); test: Rheb-dependent in vitro kinase assay (Rheb-IVK; LanthaScreen or Western readout); format: biochemical; conditions: Rheb-dependent in vitro kinase assay; read-out: IVK IC50
Rheb = Rheb (Homo sapiens (Human), UniProt Q15382); test: Affinity Selection Mass Spectrometry (ASMS); format: binding; conditions: affinity (R3/R0) in Affinity Selection Mass Spectrometry assay
Rheb, sequence (Q15382 1-169 limits assumed): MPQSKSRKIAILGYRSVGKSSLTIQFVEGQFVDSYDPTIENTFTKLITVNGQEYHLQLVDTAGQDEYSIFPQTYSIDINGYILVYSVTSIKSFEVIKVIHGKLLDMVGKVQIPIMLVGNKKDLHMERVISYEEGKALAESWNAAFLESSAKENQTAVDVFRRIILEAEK
Procedure, shortened: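 Affinity selection used 2 μM compound with 60 μM Rheb and 180 μM GDP for 30 min at room temperature. After 10 kDa ultrafiltration washes, protein was denatured in MeCN and bound compound quantified by C18 UPLC with Q-TOF MS, against a no-protein control.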

HA-GST-Rheb (GTP-γ-S loaded) activating mTORC1, sequence (Q15382 1-181): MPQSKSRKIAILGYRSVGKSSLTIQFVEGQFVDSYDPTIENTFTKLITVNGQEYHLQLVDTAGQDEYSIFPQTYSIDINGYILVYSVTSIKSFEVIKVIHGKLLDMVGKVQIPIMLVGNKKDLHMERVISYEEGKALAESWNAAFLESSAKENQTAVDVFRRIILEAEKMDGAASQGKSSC

SMILES	IC50 [1]	ASMS (R3/R0) (Rheb)
O=C(O)c1cc2c(Sc3cccc4cccnc34)cc(Cl)cc2[nH]1 [I-87, 6-chloro-4-(quinolin-8-ylthio)-1H-indole-2-carboxylic acid]	10 to 100 µM	B (an affinity (R3/R0) between 100% and 20%)
CN1CCN(c2ccc(NC(=O)c3cc4c(Sc5ccc(Cl)cc5Cl)cc(Cl)cc4[nH]3)cc2C#N)CC1 [I-112, 6-chloro-N-(3-cyano-4-(4-methylpiperazin-1-yl)phenyl)-4-(2,4-dichlorophenylthio)-1H-indole-2-carboxamide]	< 10 µM	C (an affinity (R3/R0)<20%)
Cc1nc2c(OCc3ccc(Cl)cc3)c(Cl)c(Cl)cc2[nH]1 [I-340]	> 100 µM	B (an affinity (R3/R0) between 100% and 20%)
Cn1c(CO)nc2cc(OCc3ccccc3)c(Cl)cc21 [I-425, (5-(benzyloxy)-6-chloro-1-methyl-1H-benzo[d]imidazol-2-yl)methanol]	> 3 µM	C (an affinity (R3/R0)<20%)
OCc1nc2c(OCC3CCCCC3)c(Cl)c(Cl)cc2[nH]1 [I-395, (5,6-dichloro-4-(cyclohexylmethoxy)-1H-benzo[d]imidazol-2-yl)methanol]	< 10 µM	A (an affinity (R3/R0)>100%)
OCc1cc2ccc(Sc3ccc(Cl)cc3)cc2n1Cc1nc[nH]n1 [I-185]	> 100 µM	C (an affinity (R3/R0)<20%)
Clc1ccc2[nH]ccc2c1Oc1ccccc1 [I-257, 5-chloro-4-phenoxy-1H-indole]	10 to 100 µM	C (an affinity (R3/R0)<20%)
O=S(=O)(c1cccnc1)n1ccc2c(Sc3ccc(Cl)cc3)cc(Cl)cc21 [I-107]	> 100 µM	C (an affinity (R3/R0)<20%)
OC1CC(COc2c(Cl)c(Cl)cc3c2nc2n3COC2)CC1O (stereo not shown) [I-373, 4-((6,7-dichloro-1,3-dihydrobenzo[d]oxazolo[3,4-a]imidazol-5-yloxy)methyl)cyclopentane-1,2-diol]	10 to 100 µM	C (an affinity (R3/R0)<20%)
OCc1cc2c(Sc3ccc(OC(F)(F)F)cc3)cc(Cl)cc2[nH]1 [I-123, (6-chloro-4-(4-(trifluoromethoxy)phenylthio)-1H-indol-2-yl)methanol]	< 10 µM	B (an affinity (R3/R0) between 100% and 20%)
OCc1nc2cc(OCc3ccc(OC(F)(F)F)cc3)c(Cl)c(Cl)c2[nH]1 [I-352, (6,7-dichloro-5-(4-(trifluoromethoxy)benzyloxy)-1H-benzo[d]imidazol-2-yl)methanol]	> 3 µM	A (an affinity (R3/R0)>100%)
CN(C)C(=O)c1ccc(Cn2c(C(=O)O)cc3c(Cl)cc(Sc4ccc(Cl)c(Cl)c4)cc32)cc1 [I-75, 4-chloro-6-(3,4-dichlorophenylthio)-1-(4-(dimethylcarbamoyl)benzyl)-1H-indole-2-carboxylic acid]	< 10 µM	B (an affinity (R3/R0) between 100% and 20%)
O=C(c1cc2c(Sc3ccc(Cl)cc3Cl)cc(Cl)cc2[nH]1)N1CCNCC1 [I-105, (6-chloro-4-(2,4-dichlorophenylthio)-1H-indol-2-yl)(piperazin-1-yl)methanone]	10 to 100 µM	B (an affinity (R3/R0) between 100% and 20%)
CN(C)C(=O)c1ccc(Cn2c(C(=O)O)cc3c(Br)cc(Sc4ccc(C(F)(F)F)cc4)cc32)cc1 [I-22]	> 100 µM	B (an affinity (R3/R0) between 100% and 20%)
OCc1nc2c(OC[C@H]3CNCC[C@H]3O)c(Cl)c(Cl)cc2[nH]1 (racemic) [I-386]	> 100 µM	C (an affinity (R3/R0)<20%)
CN1CCCN(C(=O)c2cc3c(Sc4ccc(Cl)cc4)cc(Cl)cc3[nH]2)CC1 [I-83]	> 100 µM	B (an affinity (R3/R0) between 100% and 20%)
OCc1cc2c(Oc3ccc(Cl)cc3)cccc2[nH]1 [I-263, (4-(4-chlorophenoxy)-1H-indol-2-yl)methanol]	10 to 100 µM	C (an affinity (R3/R0)<20%)
